Measured values reported in patent US20250236616A1, “IMMUNOMODULATING AZALIDES” (Zoetis Services LLC, priority 2021, published 2025).
pIC50: −log10 of the molar value.

How the values were obtained:
Assay type in all cases: cell-based
TNF-α = experiment: Whole bovine blood assay, LPS-induced TNF-α; conditions: fresh whole bovine blood, LPS stimulant; top drug concentration 250 μM
Summary of the method: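 Fresh heparinized bovine whole blood was preincubated with compound 4 h at 37 °C, then stimulated with LPS (final 1 μg/mL) for 18 h at 37 °C. Plasma TNF-α was quantified by MSD U-Plex chemiluminescent immunoassay, normalized to total protein (BCA), and IC50 taken for LPS-induced TNF-α inhibition.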

IL-1β = experiment: Whole bovine blood assay, LPS-induced IL-1β (inhibition / overstimulation); conditions: drug concentration giving overstimulation (OS) of LPS-induced IL-1β, top concentration 250 μM
Summary of the method: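 Fresh heparinized bovine whole blood was preincubated with compound at varying concentrations for 4 h at 37 °C, then stimulated with 1 μg/mL LPS for 18 h. Plasma IL-1β was measured by MSD chemiluminescent immunoassay and normalized to total protein. Values cover inhibition and concentration-dependent overstimulation.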

IL-6 = experiment: Whole bovine blood assay, LPS-induced IL-6; conditions: fresh whole bovine blood, LPS stimulant; top drug concentration 250 μM

Row | pIC50 (TNF-α) | pIC50 (IL-6) | SMILES | minimal effective concentration (IL-1β) [µM]
1 | 5.70 | 5.70 | CC[C@H]1OC(=O)[C@H](C)[C@@H](O[C@H]2C[C@@](C)(OC)[C@](O)(CN3CCCCC3)[C@H](C)O2)[C@H](C)[C@@H](O[C@@H]2O[C@H](C)C[C@H](N(C)S(=O)(=O)c3ccccc3)[C@H]2Oc2ccccc2)[C@](C)(O)C[C@@H](C)CN[C@H](C)[C@@H](O)[C@]1(C)O [Example C-53] | 6
2 | 5.00 | 4.32 | CC[C@H]1OC(=O)[C@H](C)[C@@H](O[C@H]2C[C@@](C)(OC)[C@](O)(CN3CCN(S(C)(=O)=O)CC3)[C@H](C)O2)[C@H](C)[C@@H](O[C@@H]2O[C@H](C)C[C@H](N(C)S(=O)(=O)Nc3ccc(C(F)(F)F)cc3)[C@H]2O)[C@](C)(O)C[C@@H](C)CN[C@H](C)[C@@H](O)[C@]1(C)O [Example C-15] | 16
3 | 4.64 | 4.64 | CC[C@H]1OC(=O)[C@H](C)[C@@H](O[C@H]2C[C@@](C)(OC)[C@](O)(Cn3cnnn3)[C@H](C)O2)[C@H](C)[C@@H](O[C@@H]2O[C@H](C)C[C@H](N(C)S(=O)(=O)c3ccc(Cl)cc3)[C@H]2O)[C@](C)(O)C[C@@H](C)CN[C@H](C)[C@@H](O)[C@]1(C)O [Example C-9] | 8
4 | 4.52 | 4.59 | CC[C@H]1OC(=O)[C@H](C)[C@@H](O)[C@H](C)[C@@H](O[C@@H]2O[C@H](C)C[C@H](N(C)S(=O)(=O)c3cc4ccccc4o3)[C@H]2Oc2ccc(F)cc2)[C@](C)(O)C[C@@H](C)CN[C@H](C)[C@@H](O)[C@]1(C)O [Example A-24] | 19
5 | 5.15 | 5.10 | CCCNC[C@]1(O)[C@H](C)O[C@@H](O[C@H]2[C@H](C)[C@@H](O[C@@H]3O[C@H](C)C[C@H](N(Cc4ccccc4)S(=O)(=O)c4nccn4C)[C@H]3O)[C@](C)(O)C[C@@H](C)CN[C@H](C)[C@@H](O)[C@](C)(O)[C@@H](CC)OC(=O)[C@@H]2C)C[C@@]1(C)OC [Example B-143] | 2
6 | 4.07 | 4.59 | CCCNC[C@]1(O)[C@H](C)O[C@@H](O[C@H]2[C@H](C)[C@@H](O[C@@H]3O[C@H](C)C[C@H](N(C)S(=O)(=O)Nc4ccc(F)cc4)[C@H]3O)[C@](C)(O)C[C@@H](C)CN[C@H](C)[C@@H](O)[C@](C)(O)[C@@H](CC)OC(=O)[C@@H]2C)C[C@@]1(C)OC [Example B-53] | 16
7 | < 3.60 | < 4.49 | CCCNC[C@]1(O)[C@H](C)O[C@@H](O[C@H]2[C@H](C)[C@@H](O[C@@H]3O[C@H](C)C[C@H](N(C)S(=O)(=O)NC)[C@H]3O)[C@](C)(O)C[C@@H](C)CN[C@H](C)[C@@H](O)[C@](C)(O)[C@@H](CC)OC(=O)[C@@H]2C)C[C@@]1(C)OC [Example B-55] | 26
8 | 4.44 | 4.66 | CC[C@H]1OC(=O)[C@H](C)[C@@H](O)[C@H](C)[C@@H](O[C@@H]2O[C@H](C)C[C@H](N(C)S(=O)(=O)c3ccccc3)[C@H]2Oc2ccc(F)cc2)[C@](C)(O)C[C@@H](C)CN[C@H](C)[C@@H](O)[C@]1(C)O [Example A-23] | 16
9 | < 3.60 | < 3.60 | CC[C@H]1OC(=O)[C@H](C)[C@@H](O[C@H]2C[C@@](C)(OC)[C@](O)(CNC)[C@H](C)O2)[C@H](C)[C@@H](O[C@@H]2O[C@H](C)C[C@H](N(C)S(=O)(=O)Nc3ccc(C(F)(F)F)cc3)[C@H]2O)[C@](C)(O)C[C@@H](C)CN[C@H](C)[C@@H](O)[C@]1(C)O [Example B-76] | >250
10 | < 3.60 | 3.85 | CCCNC[C@]1(O)[C@H](C)O[C@@H](O[C@H]2[C@H](C)[C@@H](O[C@@H]3O[C@H](C)C[C@H](N(C)S(=O)(=O)c4ncn(C)c4Cl)[C@H]3Oc3ccc(OC)cc3)[C@](C)(O)C[C@@H](C)CN[C@H](C)[C@@H](O)[C@](C)(O)[C@@H](CC)OC(=O)[C@@H]2C)C[C@@]1(C)OC [Example B-111] | 17
11 | 4.89 | 3.85 | CC[C@H]1OC(=O)[C@H](C)[C@@H](O[C@H]2C[C@@](C)(OC)[C@](O)(CN3CCN(CC)CC3)[C@H](C)O2)[C@H](C)[C@@H](O[C@@H]2O[C@H](C)C[C@H](N(C)S(=O)(=O)Nc3ccc(C(F)(F)F)cc3)[C@H]2O)[C@](C)(O)C[C@@H](C)CN[C@H](C)[C@@H](O)[C@]1(C)O [Example C-12] | 100
12 | 3.81 | 4.12 | CCCNC[C@]1(O)[C@H](C)O[C@@H](O[C@H]2[C@H](C)[C@@H](O[C@@H]3O[C@H](C)C[C@H](N(C)S(=O)(=O)c4nccn4C)[C@H]3Oc3c(C)cccc3F)[C@](C)(O)C[C@@H](C)CN[C@H](C)[C@@H](O)[C@](C)(O)[C@@H](CC)OC(=O)[C@@H]2C)C[C@@]1(C)OC [Example B-110] | 18
13 | 4.15 | < 3.60 | CC[C@H]1OC(=O)[C@H](C)[C@@H](O[C@H]2C[C@@](C)(OC)[C@](O)(CNCCN(C)C)[C@H](C)O2)[C@H](C)[C@@H](O[C@@H]2O[C@H](C)C[C@H](N(C)S(=O)(=O)Nc3ccc(C(F)(F)F)cc3)[C@H]2O)[C@](C)(O)C[C@@H](C)CN[C@H](C)[C@@H](O)[C@]1(C)O [Example B-82] | >250
14 | 4.49 | 4.66 | CC[C@H]1OC(=O)[C@H](C)[C@@H](O[C@H]2C[C@@](C)(OC)[C@](O)(CNC)[C@H](C)O2)[C@H](C)[C@@H](O[C@@H]2O[C@H](C)C[C@H](N(C)S(=O)(=O)c3ccc(Cl)cc3)[C@H]2O)[C@](C)(O)C[C@@H](C)CN[C@H](C)[C@@H](O)[C@]1(C)O [Example B-38] | 5
15 | 5.05 | 5.00 | CCCNC[C@]1(O)[C@H](C)O[C@@H](O[C@H]2[C@H](C)[C@@H](O[C@@H]3O[C@H](C)C[C@H](N(C)S(=O)(=O)c4ccccc4)[C@H]3Oc3ccc(F)cc3)[C@](C)(O)C[C@@H](C)CN[C@H](C)[C@@H](O)[C@](C)(O)[C@@H](CC)OC(=O)[C@@H]2C)C[C@@]1(C)OC [Example B-109] | 3
16 | 5.05 | 5.00 | CCCNC[C@]1(O)[C@H](C)O[C@@H](O[C@H]2[C@H](C)[C@@H](O[C@@H]3O[C@H](C)C[C@H](N(Cc4ccccc4)S(=O)(=O)c4ccc(OC)cc4)[C@H]3O)[C@](C)(O)C[C@@H](C)CN[C@H](C)[C@@H](O)[C@](C)(O)[C@@H](CC)OC(=O)[C@@H]2C)C[C@@]1(C)OC [Example B-144] | 2
17 | 4.82 | 5.15 | CCCNC[C@]1(O)[C@H](C)O[C@@H](O[C@H]2[C@H](C)[C@@H](O[C@@H]3O[C@H](C)C[C@H](N(C)S(=O)(=O)c4ccc(Br)cc4)[C@H]3Oc3ccc(OC)cc3)[C@](C)(O)C[C@@H](C)CN[C@H](C)[C@@H](O)[C@](C)(O)[C@@H](CC)OC(=O)[C@@H]2C)C[C@@]1(C)OC [Example B-104] | 3
18 | 5.70 | 5.40 | CC[C@H]1OC(=O)[C@H](C)[C@@H](O[C@H]2C[C@@](C)(OC)[C@](O)(CN3CCCCC3)[C@H](C)O2)[C@H](C)[C@@H](O[C@@H]2O[C@H](C)C[C@H](N(C)S(=O)(=O)c3ccccc3)[C@H]2Oc2ccc(F)cc2)[C@](C)(O)C[C@@H](C)CN[C@H](C)[C@@H](O)[C@]1(C)O [Example C-54] | 6
